From patent US12606552B2, “Bifunctional compound, preparation method therefor, and use thereof” (SUZHOU KINTOR PHARMACEUTICALS, INC., priority 2020, dated 2026)

Target: T1, AR (Homo sapiens, UniProt P10275, T878A)
T1 sequence (P10275 1-920 T878A): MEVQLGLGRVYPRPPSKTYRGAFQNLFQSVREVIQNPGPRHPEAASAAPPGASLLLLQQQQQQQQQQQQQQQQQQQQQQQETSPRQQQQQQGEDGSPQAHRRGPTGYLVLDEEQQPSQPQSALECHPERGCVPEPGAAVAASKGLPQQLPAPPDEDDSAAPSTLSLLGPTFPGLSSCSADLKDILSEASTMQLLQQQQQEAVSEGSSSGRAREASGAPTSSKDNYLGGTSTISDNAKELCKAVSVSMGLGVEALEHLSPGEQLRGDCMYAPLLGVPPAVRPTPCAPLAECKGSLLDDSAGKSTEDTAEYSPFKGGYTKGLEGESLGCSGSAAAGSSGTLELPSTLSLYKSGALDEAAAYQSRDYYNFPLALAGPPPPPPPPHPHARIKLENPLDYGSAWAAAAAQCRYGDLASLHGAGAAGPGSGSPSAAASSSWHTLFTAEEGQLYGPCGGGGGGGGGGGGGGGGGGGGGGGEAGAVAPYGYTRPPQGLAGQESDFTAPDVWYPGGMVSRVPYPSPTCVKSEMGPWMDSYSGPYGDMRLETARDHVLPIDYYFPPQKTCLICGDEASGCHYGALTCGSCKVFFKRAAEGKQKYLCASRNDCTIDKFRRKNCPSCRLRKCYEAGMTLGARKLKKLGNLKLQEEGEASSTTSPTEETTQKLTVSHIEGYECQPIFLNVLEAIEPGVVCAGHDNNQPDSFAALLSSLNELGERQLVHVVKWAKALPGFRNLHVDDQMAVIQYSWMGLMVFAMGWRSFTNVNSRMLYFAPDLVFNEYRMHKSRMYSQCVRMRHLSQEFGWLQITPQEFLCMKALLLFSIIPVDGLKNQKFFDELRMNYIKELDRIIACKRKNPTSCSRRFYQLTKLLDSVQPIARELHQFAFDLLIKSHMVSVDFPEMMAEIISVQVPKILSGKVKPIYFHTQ
Experiment: Effects of compounds on AR expression in LNCaP cells (ELISA, DC50)
Format: cell-based
Set-up: Measurement of the Effects of Drugs on the Expression of AR in Cells by ELISA Method; endogenous in cells; host or cells: LNCaP
Conditions: 24 hours of drug treatment, AR by ELISA
In short: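 LNCaP cells at about 15,000/well were treated for 24 h with compound at 0.0001–2 μmol/L final. AR in cell lysates was measured by ELISA (OD450). Inhibition was relative to DMSO control after blank subtraction, and DC50 was calculated from it.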

Structure (SMILES) | DC50
Cc1cc(C(C(=O)N2C[C@H](O)C[C@H]2C(=O)N[C@@H](CC(=O)NCCN2CCC(C#Cc3ccc(N4C(=S)N(c5ccc(C#N)c(C(F)(F)F)c5F)C(=O)C4(C)C)cc3)CC2)c2ccc(-c3scnc3C)cc2)C(C)C)on1 (some centres unmarked) [Compound A184] | 370 nM
COc1c(C#N)ccc(N2C(=O)C(C)(C)N(c3ccc(-c4ccc(OCCCCOCC(=O)N[C@H](C(=O)N5C[C@H](O)C[C@H]5C(=O)NCc5ccc(-c6scnc6C)cc5)C(C)(C)C)cc4)nc3)C2=S)c1F [Compound A185] | 49.8 nM
Cc1cc(C(C(=O)N2C[C@H](O)C[C@H]2C(=O)N[C@@H](CC(=O)NCCN2CCC(Oc3ccc(-c4ncc(N5C(=S)N(c6ccc(C#N)c(C(F)(F)F)c6F)C(=O)C5(C)C)cc4F)cc3F)CC2)c2ccc(-c3scnc3C)cc2)C(C)C)on1 (some centres unmarked) [Compound A186] | 87 nM
CC1(C)C(=O)N(c2ccc(C#N)c(C(F)(F)F)c2F)C(=S)N1c1cnc(-c2cc(F)c(OC3CCN(C(=O)COc4ccc5c(c4)C(=O)N(C4CCC(=O)NC4=O)C5=O)CC3)c(F)c2)c(F)c1 (centres unmarked) [Compound A189] | 329 nM
CC1(C)C(=O)N(c2ccc(C#N)c(C(F)(F)F)c2F)C(=S)N1c1cnc(-c2cc(F)c(OC3CCN(C(=O)COc4cccc5c4C(=O)N(C4CCC(=O)NC4=O)C5=O)CC3)c(F)c2)c(F)c1 (centres unmarked) [Compound A191] | 162 nM
COc1c(C#N)ccc(N2C(=O)C(C)(C)N(c3cnc(-c4ccc(OC5CCN(C(=O)COc6ccc7c(c6)C(=O)N(C6CCC(=O)NC6=O)C7=O)CC5)cc4F)c(F)c3)C2=S)c1F (centres unmarked) [Compound A194] | 246 nM
COc1c(C#N)ccc(N2C(=O)C(C)(C)N(c3cnc(-c4ccc(OC5CCN(C(=O)COc6cccc7c6C(=O)N(C6CCC(=O)NC6=O)C7=O)CC5)cc4F)c(F)c3)C2=S)c1F (centres unmarked) [Compound A195] | 404 nM
COc1c(C#N)ccc(N2C(=O)C(C)(C)N(c3cnc(-c4ccc(OCCCCOCC(=O)N[C@H](C(=O)N5C[C@H](O)C[C@H]5C(=O)NCc5ccc(-c6scnc6C)cc5)C(C)(C)C)cc4C(F)(F)F)c(F)c3)C2=S)c1F [Compound A196] | 39 nM
COc1c(C#N)ccc(N2C(=O)C(C)(C)N(c3cnc(-c4ccc(OCCNC(=O)COc5ccc6c(c5)C(=O)N(C5CCC(=O)NC5=O)C6=O)c(F)c4)c(F)c3)C2=S)c1F (centres unmarked) [Compound A197] | 435 nM
Cc1ncsc1-c1c[nH]c([C@@H]2C[C@@H](O)CN2C(=O)[C@@H](NC(=O)COCCCCOc2ccc(-c3ccc(N4C(=S)N(c5ccc(C#N)c(C(F)(F)F)c5F)C(=O)C4(C)C)cn3)cc2)C(C)(C)C)n1 [Compound A198] | 42.8 nM
CC(C)(C)[C@H](NC(=O)COCCCCOc1ccc(-c2ncc(N3C(=S)N(c4ccc(C#N)c(C(F)(F)F)c4F)C(=O)C3(C)C)cc2F)c(C(F)(F)F)c1)C(=O)N1C[C@H](O)C[C@H]1c1nc(-c2ccccc2)c[nH]1 [Compound A202] | 661 nM
CC(C)(C)[C@H](NC(=O)COCCCCOc1ccc(-c2ccc(N3C(=S)N(c4ccc(C#N)c(C(F)(F)F)c4F)C(=O)C3(C)C)cn2)cc1)C(=O)N1C[C@H](O)C[C@H]1c1nc(-c2cncs2)c[nH]1 [Compound A203] | 71.9 nM
CC(C)(C)[C@H](NC(=O)COCCCCOc1ccc(-c2ncc(N3C(=S)N(c4ccc(C#N)c(C(F)(F)F)c4F)C(=O)C3(C)C)cc2F)c(C(F)(F)F)c1)C(=O)N1C[C@H](O)C[C@H]1c1nc(-c2cncs2)c[nH]1 [Compound A204] | 36.4 nM
CC(C)(C)[C@H](NC(=O)COCCCCOc1ccc(-c2ccc(N3C(=S)N(c4ccc(C#N)c(C(F)(F)F)c4F)C(=O)C3(C)C)cn2)cc1)C(=O)N1C[C@H](O)C[C@H]1c1nc(-c2cccs2)c[nH]1 [Compound A209] | 856 nM
CC(C)(C)[C@H](NC(=O)COCCCCOc1ccc(-c2ncc(N3C(=S)N(c4ccc(C#N)c(C(F)(F)F)c4F)C(=O)C3(C)C)cc2F)c(C(F)(F)F)c1)C(=O)N1C[C@H](O)C[C@H]1c1nc(-c2cccs2)c[nH]1 [Compound A210] | 834 nM
CC(C)(C)[C@H](NC(=O)COCCCCOc1ccc(-c2ccc(N3C(=S)N(c4ccc(C#N)c(C(F)(F)F)c4F)C(=O)C3(C)C)cn2)cc1)C(=O)N1C[C@H](O)C[C@H]1c1nc(-c2cccnc2)c[nH]1 [Compound A214] | 173 nM

Structure (SMILES) | DC50
COc1c(C#N)ccc(N2C(=O)C(C)(C)N(c3cnc(-c4ccc(OCCCCOCC(=O)N[C@H](C(=O)N5C[C@H](O)C[C@H]5C(=O)NCc5ccc(-c6scnc6C)cc5)C(C)(C)C)c(F)c4)c(F)c3)C2=S)c1F [Compound A215] | 83.1 nM
CC(C)(C)[C@H](NC(=O)COCCCCOc1ccc(-c2ncc(N3C(=S)N(c4ccc(C#N)c(C(F)(F)F)c4F)C(=O)C3(C)C)cc2F)c(C(F)(F)F)c1)C(=O)N1C[C@H](O)C[C@H]1C(=O)NCc1cnco1 [Compound A219] | 589 nM
Cc1ncsc1-c1cn(C)c([C@@H]2C[C@@H](O)CN2C(=O)[C@@H](NC(=O)COCCCCOc2ccc(-c3ccc(N4C(=S)N(c5ccc(C#N)c(C(F)(F)F)c5F)C(=O)C4(C)C)cn3)cc2)C(C)(C)C)n1 [Compound A220] | 289 nM
Cc1ncsc1-c1cn(C)c([C@@H]2C[C@@H](O)CN2C(=O)[C@@H](NC(=O)COCCCCOc2ccc(-c3ncc(N4C(=S)N(c5ccc(C#N)c(C(F)(F)F)c5F)C(=O)C4(C)C)cc3F)c(C(F)(F)F)c2)C(C)(C)C)n1 [Compound A221] | 144 nM
Cc1ncoc1-c1c[nH]c([C@@H]2C[C@@H](O)CN2C(=O)[C@@H](NC(=O)COCCCCOc2ccc(-c3ncc(N4C(=S)N(c5ccc(C#N)c(C(F)(F)F)c5F)C(=O)C4(C)C)cc3F)c(C(F)(F)F)c2)C(C)(C)C)n1 [Compound A224] | 75.7 nM
Cc1ncoc1-c1c[nH]c([C@@H]2C[C@@H](O)CN2C(=O)[C@@H](NC(=O)COCCCCOc2ccc(-c3ccc(N4C(=S)N(c5ccc(C#N)c(C(F)(F)F)c5F)C(=O)C4(C)C)cn3)cc2)C(C)(C)C)n1 [Compound A225] | 92.1 nM
CC(C)(C)[C@H](NC(=O)COCCCCOc1ccc(-c2ncc(N3C(=S)N(c4ccc(C#N)c(C(F)(F)F)c4F)C(=O)C3(C)C)cc2F)c(C(F)(F)F)c1)C(=O)N1C[C@H](O)C[C@H]1c1nc(-c2cncnc2)c[nH]1 [Compound A227] | 24.8 nM
CC(C)(C)[C@H](NC(=O)COCCCCOc1ccc(-c2ccc(N3C(=S)N(c4ccc(C#N)c(C(F)(F)F)c4F)C(=O)C3(C)C)cn2)cc1)C(=O)N1C[C@H](O)C[C@H]1c1nc(-c2cncnc2)c[nH]1 [Compound A228] | 107 nM
Cn1cncc1-c1c[nH]c([C@@H]2C[C@@H](O)CN2C(=O)[C@@H](NC(=O)COCCCCOc2ccc(-c3ccc(N4C(=S)N(c5ccc(C#N)c(C(F)(F)F)c5F)C(=O)C4(C)C)cn3)cc2)C(C)(C)C)n1 [Compound A232] | 41.3 nM
Cn1cncc1-c1c[nH]c([C@@H]2C[C@@H](O)CN2C(=O)[C@@H](NC(=O)COCCCCOc2ccc(-c3ncc(N4C(=S)N(c5ccc(C#N)c(C(F)(F)F)c5F)C(=O)C4(C)C)cc3F)c(C(F)(F)F)c2)C(C)(C)C)n1 [Compound A233] | 194 nM
CNC(=O)c1ccc(-c2c[nH]c([C@@H]3C[C@@H](O)CN3C(=O)[C@@H](NC(=O)COCCCCOc3ccc(-c4ccc(N5C(=S)N(c6ccc(C#N)c(C(F)(F)F)c6F)C(=O)C5(C)C)cn4)cc3)C(C)(C)C)n2)cc1 [Compound A234] | 26.1 nM
CNC(=O)c1ccc(-c2c[nH]c([C@@H]3C[C@@H](O)CN3C(=O)[C@@H](NC(=O)COCCCCOc3ccc(-c4ncc(N5C(=S)N(c6ccc(C#N)c(C(F)(F)F)c6F)C(=O)C5(C)C)cc4F)c(C(F)(F)F)c3)C(C)(C)C)n2)cc1 [Compound A235] | 125 nM
Cc1ncsc1-c1ccc(CNC(=O)[C@@H]2C[C@@H](O)CN2C(=O)[C@@H](NC(=O)Cc2ccc(C(=O)Nc3ccc(-c4ccc(N5C(=S)N(c6ccc(C#N)c(C(F)(F)F)c6F)C(=O)C5(C)C)cn4)cc3)cc2)C(C)(C)C)cc1 [Compound A240] | 264 nM
Cc1ncsc1-c1ccc(CNC(=O)[C@@H]2C[C@@H](O)CN2C(=O)[C@@H](NC(=O)c2ccc(C(F)(F)C(=O)Nc3ccc(-c4ccc(N5C(=S)N(c6ccc(C#N)c(C(F)(F)F)c6F)C(=O)C5(C)C)cn4)cc3)cc2)C(C)(C)C)cc1 [Compound A241] | 807 nM
Cc1ncsc1-c1ccc(CNC(=O)[C@@H]2C[C@@H](O)CN2C(=O)[C@@H](NC(=O)c2ccc(CC(=O)Nc3ccc(-c4ccc(N5C(=S)N(c6ccc(C#N)c(C(F)(F)F)c6F)C(=O)C5(C)C)cn4)cc3)cc2)C(C)(C)C)cc1 [Compound A244] | 173 nM
Cc1ncsc1-c1ccc(CNC(=O)[C@@H]2C[C@@H](O)CN2C(=O)[C@@H](NC(=O)COCCCOCCCCCOc2ccc(N3C(=S)N(c4ccc(C#N)c(C(F)(F)F)c4F)C(=O)C3(C)C)cn2)C(C)(C)C)cc1 [Compound A247] | 75.5 nM
